Here are results for 1 compound from patent US20220133894A1, “BISPHOSPHONATE-LINKED COMPOUNDS” (OREGON HEALTH & SCIENCE UNIVERSITY, priority 2019, published 2022).

One data set relates to PC3-M cells. Briefly: 7 day colony formation assay, chemotherapy with or without KBU2046. The data set is classed as cell-based, human. Here is the method: To assess the impact of cytotoxic chemotherapy on PCa growth kinetics seven-day soft agar colony formation assays and three-day MTT cell growth inhibition assays were performed as described by us ([…] et al., Cancer Lett 352, 179-186 (2014)). MTT assays were in replicates of N=3, and were repeated, soft agar assays were in replicates of N=2 and are presented as mean number of colonies, expressed as percent of untreated controls. For PC3-M PCa and MDA-MB-231 triple negative breast cancer cells, data are the mean±SD (N=2 replicates) number of colonies in 7 day colony formation assays. All data are expressed as the percentage of untreated control cells. Cells were treated with 10 μM KBU2046 or vehicle (CO), and the indicated concentration and type of chemotherapy.

The test system of the next data set is LNCaP cells. Briefly: SRB growth inhibition assay, LNCaP. The class given is cell-based, human. Conditions: 10 μM enzalutamide, 10 μM KBU2046 added to control or enzalutamide treated cells, 72 hours. The method, then: LNCaP or VCaP cells cultured in hormone free media were treated with R1881 (R), KBU2046 (46) and/or enzalutamide (E). (FIGS. 3A and 3B) Effects on AR-responsive gene expression. PSA expression was measured by qRT/PCR, normalized to GAPDH and expressed as a percent of control cells (N=3 replicates); * denotes P<0.05 for groups separated by bar. (FIGS. 3C and 3D) Effects on cell growth. Three day growth assays were performed. Data are the number of viable cells, expressed as % of control (N=3 replicates); * P<0.05 compared to control. (E) Effects on AR activation. Western blots of nuclear (N) and cytoplasmic (C) preparations of cell extracts were probed for AR, laminin 1 or α-tubulin. (FIGS. 3F and 3G) Effects on tumor outgrowth after androgen deprivation therapy. LNCaP/AR-luc cells were implanted subcutaneously (N=6 mice/cohort) or orthotopic (N=15 mice/cohort were implanted; N=5 yielded tumors) into castrate mice, treatment with KBU2046 began as noted, and weekly IVIS imaging performed. Data are tumor size, expressed as luminescence intensity. All data are expressed as mean±SEM.
Enzalutamide mediated growth inhibition was assessed using Sulforhodamine B (SRB) growth inhibition assays, were performed as previously described (49). In brief, LNCaP and VCaP cells were pre-incubated in charcoal-striped medium for 48 hours and then seeded (1.9×10^4) in 96-well plates. […]

In the next data set the test system is AR. Nature of the data set: Subcellular localization of androgen receptor, Western blot of nuclear and cytoplasmic fractions. The class given is cell-based, human. The settings on record: LNCaP and VCaP cells, 10 μM KBU2046. The source says:
Several considerations warranted a deeper examination of the effect of KBU2046 on AR function. […] Additionally, AR is a client protein of HSP90, AR function requires HSP90-mediated chaperone action, and direct inhibitors of HSP90 decrease client protein expression and inhibit AR function (24-26 Fang et al., J Biol Chem 271, 28697-28702 (1996); Saporita et al., Prostate 67, 509-520 (2007); and Ni et al., Mol Cell Biol 30, 1243-1253 (2010)). […] It is a selective HSP90 activity modulator (SHAM), and selectively modulates client proteins that regulate cell motility. However, the effect of KBU2046 on AR expression and function had not been examined. […]
LNCaP or VCaP cells cultured in hormone free media were treated with R1881 (R), KBU2046 (46) and/or enzalutamide (E). […] PSA expression was measured by qRT/PCR, normalized to GAPDH and expressed as a percent of control cells (N=3 replicates); * denotes P<0.05 for groups separated by bar. […] Data are the number of viable cells, expressed as % of control (N=3 replicates); * P<0.05 compared to control. […] Data are tumor size, expressed as luminescence intensity. All data are expressed as mean±SEM.
LNCaP and VCaP cells were pre-incubated in the charcoal-striped medium containing 10 μM KBU2046 or vehicle control for 72 hours. […] Protein was quantified by BCA assay (Thermo-Fisher Scientific, Waltham, Mass.), per manufacturer's instructions. […]

Data set [1] has as its system human prostate and breast cancer. Conditions: oral administration, nanomolar concentrations; cited from earlier work.

Consider `O=C1c2ccccc2OCC1c1ccc(F)cc1` (stereo not drawn) [KBU2046, 3-(4-fluorophenyl)chroman-4-one], for which, in the data set on PC3-M cells (10 μM KBU2046, PC3-M cells, FIG. 14), the “effect on activity of adriamycin” value is reported as “does not inhibit”. For the same compound, the “effect on activity of vinblastine” value in the data set on PC3-M cells (10 μM KBU2046, PC3-M cells, FIG. 16) is “does not inhibit”. In addition, in the data set on PC3-M cells (10 μM KBU2046, PC3-M cells, FIG. 18), the “effect on activity of taxol” value was “does not inhibit”. Besides, the “interference upon cytotoxic action of adriamycin, taxol and vinblastine” value in the data set with PC3-M cells (KBU2046 co-administered, PC3-M cells) is reported as “lack of interference”. Moreover, in the data set on LNCaP cells, the cell growth entry is listed as “no significant effect”. Besides, in the data set on AR, the “AR expression or nuclear localization in response to R1881, and its inhibition by enzalutamide” value is given as “did not affect”. Besides, in data set [1], the bone destruction result was “decreases”, the metastasis entry is given as “inhibits” and the survival result is on record as “prolongs”.
